Test results taken from the supplement of paper PMC10883282.
± gives the standard deviation of the averaged measurements.

How the values were obtained:
Test in all cases: relative viability vs DMSO control (72 h) (fraction); higher = more viable cells
SW872 = test system: SW872
Procedure, shortened: (§1)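 ATPLite readings, expressed as percent growth and averaged over up to triplicate wells, provided relative viability. Before reading, sarcoma cell lines seeded in 384-well plates to reach 80–90% confluence received 2.5 µl of serially diluted compound after 24 h, from source plates of 10 mM to 0.0002 mM. Plates were held 72 h at 37 °C, 5% CO2, with 0.1% DMSO as vehicle and a 5 µM positive control. The data were rescaled to 1 for full and 0 for none.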

SW684 = test system: SW684
Procedure, shortened: as §1

HT1080 = test system: HT1080
Procedure, shortened: as §1

A204 = test system: A204
Procedure, shortened: as §1

SK-LMS-1 = test system: SK-LMS-1
Procedure, shortened: as §1

RD-ES = test system: RD-ES
Procedure, shortened: as §1

SK-ES-1 = test system: SK-ES-1
Procedure, shortened: as §1

SW982 = test system: SW982
Procedure, shortened: as §1

VA-ES-BJ = test system: VA-ES-BJ
Procedure, shortened: as §1

G401 = test system: G401
Procedure, shortened: as §1

HS729 = test system: HS729
Procedure, shortened: as §1

KHOS-NP = test system: KHOS-NP
Procedure, shortened: as §1

## O=C(Nc1ccc(OC(F)(F)Cl)cc1)c1cnc(N2CC[C@@H](O)C2)c(-c2cc[nH]n2)c1 [Asciminib]
SW872; 0.00017 µM
  relative viability: 0.966 ± 0.039
SW872; 0.00051 µM
  relative viability: 0.94 ± 0.023
SW872; 0.00152 µM
  relative viability: 0.939 ± 0.028
SW872; 0.00457 µM
  relative viability: 0.938 ± 0.025
SW872; 0.01372 µM
  relative viability: 0.937 ± 0.023
SW872; 0.04115 µM
  relative viability: 0.978 ± 0.029
SW872; 0.1235 µM
  relative viability: 0.9486 ± 0.0027
SW872; 0.3704 µM
  relative viability: 1.01 ± 0.034
SW872; 1.111 µM
  relative viability: 0.991 ± 0.025
SW872; 3.333 µM
  relative viability: 0.974 ± 0.022
SW872; 10 µM
  relative viability: 0.93 ± 0.013
SW684; 0.00017 µM
  relative viability: 1.09 ± 0.05
SW684; 0.00051 µM
  relative viability: 1.06 ± 0.025
SW684; 0.00152 µM
  relative viability: 1.09 ± 0.076
SW684; 0.00457 µM
  relative viability: 1.09 ± 0.026
SW684; 0.01372 µM
  relative viability: 1.08 ± 0.068
SW684; 0.04115 µM
  relative viability: 1.102 ± 0.0092
SW684; 0.1235 µM
  relative viability: 1.16 ± 0.038
SW684; 0.3704 µM
  relative viability: 1.23 ± 0.02
SW684; 1.111 µM
  relative viability: 1.18 ± 0.042
SW684; 3.333 µM
  relative viability: 1.11 ± 0.046
SW684; 10 µM
  relative viability: 0.627 ± 0.017
HT1080; 0.00017 µM
  relative viability: 0.999 ± 0.039
HT1080; 0.00051 µM
  relative viability: 1.06 ± 0.032
HT1080; 0.00152 µM
  relative viability: 1 ± 0.045
HT1080; 0.00457 µM
  relative viability: 0.999 ± 0.015
HT1080; 0.01372 µM
  relative viability: 0.968 ± 0.047
HT1080; 0.04115 µM
  relative viability: 1 ± 0.014
HT1080; 0.1235 µM
  relative viability: 1.03 ± 0.038
HT1080; 0.3704 µM
  relative viability: 1 ± 0.046
HT1080; 1.111 µM
  relative viability: 0.998 ± 0.018
HT1080; 3.333 µM
  relative viability: 0.978 ± 0.036
HT1080; 10 µM
  relative viability: 0.916 ± 0.027
A204; 0.00017 µM
  relative viability: 1.02 ± 0.028
A204; 0.00051 µM
  relative viability: 1.04 ± 0.043
A204; 0.00152 µM
  relative viability: 1.05 ± 0.03
A204; 0.00457 µM
  relative viability: 1.04 ± 0.039
A204; 0.01372 µM
  relative viability: 1.04 ± 0.02
A204; 0.04115 µM
  relative viability: 1.05 ± 0.02
A204; 0.1235 µM
  relative viability: 1.06 ± 0.043
A204; 0.3704 µM
  relative viability: 1.06 ± 0.041
A204; 1.111 µM
  relative viability: 1.04 ± 0.035
A204; 3.333 µM
  relative viability: 0.799 ± 0.071
A204; 10 µM
  relative viability: 0.449 ± 0.055
SK-LMS-1; 0.00017 µM
  relative viability: 0.928 ± 0.004
SK-LMS-1; 0.00051 µM
  relative viability: 0.955 ± 0.059
SK-LMS-1; 0.00152 µM
  relative viability: 0.972 ± 0.052
SK-LMS-1; 0.00457 µM
  relative viability: 0.97 ± 0.025
SK-LMS-1; 0.01372 µM
  relative viability: 1.06 ± 0.028
SK-LMS-1; 0.04115 µM
  relative viability: 1.02 ± 0.021
SK-LMS-1; 0.1235 µM
  relative viability: 1 ± 0.066
SK-LMS-1; 0.3704 µM
  relative viability: 1.05 ± 0.046
SK-LMS-1; 1.111 µM
  relative viability: 1.04 ± 0.08
SK-LMS-1; 3.333 µM
  relative viability: 0.773 ± 0.018
SK-LMS-1; 10 µM
  relative viability: 0.565 ± 0.019
RD-ES; 0.00017 µM
  relative viability: 0.944 ± 0.011
RD-ES; 0.00051 µM
  relative viability: 0.942 ± 0.019
RD-ES; 0.00152 µM
  relative viability: 0.927 ± 0.013
RD-ES; 0.00457 µM
  relative viability: 0.926 ± 0.02
RD-ES; 0.01372 µM
  relative viability: 0.908 ± 0.0096
RD-ES; 0.04115 µM
  relative viability: 0.895 ± 0.032
RD-ES; 0.1235 µM
  relative viability: 0.915 ± 0.018
RD-ES; 0.3704 µM
  relative viability: 0.889 ± 0.044
RD-ES; 1.111 µM
  relative viability: 0.852 ± 0.022
RD-ES; 3.333 µM
  relative viability: 0.849 ± 0.038
RD-ES; 10 µM
  relative viability: 0.748 ± 0.039
SK-ES-1; 0.00017 µM
  relative viability: 0.975 ± 0.034
SK-ES-1; 0.00051 µM
  relative viability: 0.999 ± 0.022
SK-ES-1; 0.00152 µM
  relative viability: 1 ± 0.077
SK-ES-1; 0.00457 µM
  relative viability: 1 ± 0.023
SK-ES-1; 0.01372 µM
  relative viability: 0.992 ± 0.051
SK-ES-1; 0.04115 µM
  relative viability: 1.01 ± 0.033
SK-ES-1; 0.1235 µM
  relative viability: 1.01 ± 0.014
SK-ES-1; 0.3704 µM
  relative viability: 1.02 ± 0.055
SK-ES-1; 1.111 µM
  relative viability: 0.995 ± 0.065
SK-ES-1; 3.333 µM
  relative viability: 0.906 ± 0.037
SK-ES-1; 10 µM
  relative viability: 0.814 ± 0.036
SW982; 0.00017 µM
  relative viability: 0.974 ± 0.046
SW982; 0.00051 µM
  relative viability: 0.978 ± 0.068
SW982; 0.00152 µM
  relative viability: 1 ± 0.025
SW982; 0.00457 µM
  relative viability: 0.975 ± 0.074
SW982; 0.01372 µM
  relative viability: 1.01 ± 0.033
SW982; 0.04115 µM
  relative viability: 1.01 ± 0.035
SW982; 0.1235 µM
  relative viability: 1.01 ± 0.052
SW982; 0.3704 µM
  relative viability: 1.04 ± 0.05
SW982; 1.111 µM
  relative viability: 1.05 ± 0.036
SW982; 3.333 µM
  relative viability: 1.01 ± 0.081
SW982; 10 µM
  relative viability: 0.858 ± 0.011
VA-ES-BJ; 0.00017 µM
  relative viability: 0.998 ± 0.047
VA-ES-BJ; 0.00051 µM
  relative viability: 0.982 ± 0.05
VA-ES-BJ; 0.00152 µM
  relative viability: 0.995 ± 0.042
VA-ES-BJ; 0.00457 µM
  relative viability: 0.99 ± 0.064
VA-ES-BJ; 0.01372 µM
  relative viability: 0.999 ± 0.041
VA-ES-BJ; 0.04115 µM
  relative viability: 1.02 ± 0.03
VA-ES-BJ; 0.1235 µM
  relative viability: 1.02 ± 0.035
VA-ES-BJ; 0.3704 µM
  relative viability: 1.03 ± 0.025
VA-ES-BJ; 1.111 µM
  relative viability: 1.02 ± 0.049
VA-ES-BJ; 3.333 µM
  relative viability: 0.9997 ± 0.0059
VA-ES-BJ; 10 µM
  relative viability: 0.9486 ± 0.0022
G401; 0.00017 µM
  relative viability: 0.949 ± 0.014
G401; 0.00051 µM
  relative viability: 0.921 ± 0.019
G401; 0.00152 µM
  relative viability: 0.928 ± 0.05
G401; 0.00457 µM
  relative viability: 0.967 ± 0.054
G401; 0.01372 µM
  relative viability: 0.961 ± 0.048
G401; 0.04115 µM
  relative viability: 0.981 ± 0.063
G401; 0.1235 µM
  relative viability: 0.981 ± 0.072
G401; 0.3704 µM
  relative viability: 0.99 ± 0.056
G401; 1.111 µM
  relative viability: 0.9822 ± 0.0088
G401; 3.333 µM
  relative viability: 0.909 ± 0.036
G401; 10 µM
  relative viability: 0.831 ± 0.047
HS729; 0.00017 µM
  relative viability: 0.939 ± 0.045
HS729; 0.00051 µM
  relative viability: 0.932 ± 0.018
HS729; 0.00152 µM
  relative viability: 0.93 ± 0.021
HS729; 0.00457 µM
  relative viability: 0.915 ± 0.029
HS729; 0.01372 µM
  relative viability: 0.916 ± 0.021
HS729; 0.04115 µM
  relative viability: 0.893 ± 0.018
HS729; 0.1235 µM
  relative viability: 0.928 ± 0.02
HS729; 0.3704 µM
  relative viability: 0.901 ± 0.036
HS729; 1.111 µM
  relative viability: 0.903 ± 0.06
HS729; 3.333 µM
  relative viability: 0.954 ± 0.049
HS729; 10 µM
  relative viability: 0.829 ± 0.044
KHOS-NP; 0.00017 µM
  relative viability: 1.04 ± 0.012
KHOS-NP; 0.00051 µM
  relative viability: 1.06 ± 0.022
KHOS-NP; 0.00152 µM
  relative viability: 1.06 ± 0.013
KHOS-NP; 0.00457 µM
  relative viability: 1.04 ± 0.015
KHOS-NP; 0.01372 µM
  relative viability: 1.061 ± 0.0089
KHOS-NP; 0.04115 µM
  relative viability: 1.04 ± 0.02
KHOS-NP; 0.1235 µM
  relative viability: 1.06 ± 0.011
KHOS-NP; 0.3704 µM
  relative viability: 1.025 ± 0.0076
KHOS-NP; 1.111 µM
  relative viability: 0.998 ± 0.059
KHOS-NP; 3.333 µM
  relative viability: 0.901 ± 0.036
KHOS-NP; 10 µM
  relative viability: 0.695 ± 0.011
